17 compounds from US20250270213A1, “PI3Ka INHIBITORS” (Synnovation Therapeutics, Inc., priority 2022, published 2025) can be followed below.

This experiment concerns T47D (PIK3CA H1047R) cells. The experiment can be described thus: pS473 AKT assay with 2.5% FBS, T47D cells. Format: cell-based. The following applies: Homo sapiens, pSer473 AKT, DMEM with 2.5% FBS, 2 h treatment, read-out: T47D_IC50. Put shortly:
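T47D (PIK3CA H1047R) cells were switched to DMEM with 2.5% FBS and exposed to compounds for 2 h. After paraformaldehyde fixation, pSer473 AKT was detected by in-cell ELISA (rabbit primary, HRP anti-rabbit secondary, chemiluminescence); IC50 values were fitted from the concentration series.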
Turning to `Cc1cc(C(C)Nc2ccc(Cl)nc2-c2ncn(C)n2)c2c(c1)c(=O)n(C)c1c2cnn1C1CN(CC(C)(C)O)C1` (centres unmarked) [Compound 93, 9-(1-((6-chloro-2-(1-methyl-1H-1,2,4-triazol-3-yl)pyridin-3-yl)amino)ethyl)-3-(1-(2-hydroxy-2-methylpropyl)azetidin-3-yl)-4,7-dimethyl-3,4-dihydro-5H-pyrazolo[3,4-c]isoquinolin-5-one], the IC50 was under 1000 nM.

In the case of `Cc1cc(C(C)Nc2ccc(Cl)nc2-c2ncn(C)n2)c2c(c1)c(=O)n(C)c1c2cnn1C1CN(CC(F)F)C1` (centres unmarked) [Compound 94, 9-(1-((6-chloro-2-(1-methyl-1H-1,2,4-triazol-3-yl)pyridin-3-yl)amino)ethyl)-3-(1-(2,2-difluoroethyl)azetidin-3-yl)-4,7-dimethyl-3,4-dihydro-5H-pyrazolo[3,4-c]isoquinolin-5-one], the IC50 was under 1000 nM.

As for `Cc1cc(C(C)Nc2ccc(Cl)nc2-c2ncn(C)n2)c2c(c1)c(=O)n(C)c1c2cnn1C1CN(CC#N)C1` (centres unmarked) [Compound 95, 2-(3-(9-(1-((6-chloro-2-(1-methyl-1H-1,2,4-triazol-3-yl)pyridin-3-yl)amino)ethyl)-4,7-dimethyl-5-oxo-4,5-dihydro-3H-pyrazolo[3,4-c]isoquinolin-3-yl)azetidin-1-yl)acetonitrile], the IC50 is under 1000 nM. Next, `Cc1cc(C(C)Nc2ccc(Cl)nc2-c2ncn(C)n2)c2c(c1)c(=O)n(C)c1c2cnn1C1CN(CCC#N)C1` (centres unmarked) [Compound 96, 3-(3-(9-(1-((6-chloro-2-(1-methyl-1H-1,2,4-triazol-3-yl)pyridin-3-yl)amino)ethyl)-4,7-dimethyl-5-oxo-4,5-dihydro-3H-pyrazolo[3,4-c]isoquinolin-3-yl)azetidin-1-yl)propanenitrile]: under 1000 nM. With `CC(=O)N1CC(n2ncc3c4c(C(C)Nc5ccc(Cl)nc5-c5ncn(C)n5)cc(C)cc4c(=O)n(C)c32)C1` (centres unmarked) [Compound 97, 3-(1-Acetylazetidin-3-yl)-9-(1-((6-chloro-2-(1-methyl-1H-1,2,4-triazol-3-yl)pyridin-3-yl)amino)ethyl)-4,7-dimethyl-3,4-dihydro-5H-pyrazolo[3,4-c]isoquinolin-5-one] the figure was under 1000 nM.

For `COC(=O)N1CC(n2ncc3c4c(C(C)Nc5ccc(Cl)nc5-c5ncn(C)n5)cc(C)cc4c(=O)n(C)c32)C1` (centres unmarked) [Compound 98, methyl 3-(9-(1-((6-chloro-2-(1-methyl-1H-1,2,4-triazol-3-yl)pyridin-3-yl)amino)ethyl)-4,7-dimethyl-5-oxo-4,5-dihydro-3H-pyrazolo[3,4-c]isoquinolin-3-yl)azetidine-1-carboxylate], the IC50 is under 1000 nM. Next, `Cc1cc(C(C)Nc2ccc(Cl)nc2-c2ncn(C)n2)c2c(c1)c(=O)n(C)c1c2cnn1C1CN(S(C)(=O)=O)C1` (centres unmarked) [Compound 99, 9-(1-((6-chloro-2-(1-methyl-1H-1,2,4-triazol-3-yl)pyridin-3-yl)amino)ethyl)-4,7-dimethyl-3-(1-(methylsulfonyl)azetidin-3-yl)-3,4-dihydro-5H-pyrazolo[3,4-c]isoquinolin-5-one]: under 1000 nM. On to `CC(=O)N1CC(n2ncc3c4c(C(C)Nc5ccc(Cl)nc5-c5ccc(=O)n(C)c5)cc(C)cc4c(=O)n(C)c32)C1` (centres unmarked) [Compound 100, 3-(1-Acetylazetidin-3-yl)-9-(1-((6-chloro-1′-methyl-6′-oxo-1′,6′-dihydro-[2,3′-bipyridin]-3-yl)amino)ethyl)-4,7-dimethyl-3,4-dihydro-5H-pyrazolo[3,4-c]isoquinolin-5-one], for which the IC50 is under 1000 nM. As to `CNC(=O)c1ccc(-c2nc(Cl)ccc2NC(C)c2cc(C)cc3c(=O)n(C)c4c(cnn4C4CN(C(C)=O)C4)c23)cn1` (centres unmarked) [Compound 101, 3-((1-(3-(1-acetylazetidin-3-yl)-4,7-dimethyl-5-oxo-4,5-dihydro-3H-pyrazolo[3,4-c]isoquinolin-9-yl)ethyl)amino)-6-chloro-N-methyl-[2,3′-bipyridine]-6′-carboxamide], the IC50 is under 1000 nM.

With `CC(=O)N1CC(n2ncc3c4c(C(C)Nc5ccc(Cl)nc5-c5ncn(CCO)n5)cc(C)cc4c(=O)n(C)c32)C1` (centres unmarked) [Compound 102, 3-(1-acetylazetidin-3-yl)-9-(1-((6-chloro-2-(1-(2-hydroxyethyl)-1H-1,2,4-triazol-3-yl)pyridin-3-yl)amino)ethyl)-4,7-dimethyl-3,4-dihydro-5H-pyrazolo[3,4-c]isoquinolin-5-one], the IC50 was 1000 to 5000 nM. As to `Cc1cc(C(C)Nc2ccc(Cl)nc2-c2ncn(C)n2)c2c(c1)c(=O)n(C)c1c2cnn1C1CN(C(=O)CO)C1` (centres unmarked) [Compound 103, 9-(1-((6-Chloro-2-(1-methyl-1H-1,2,4-triazol-3-yl)pyridin-3-yl)amino)ethyl)-3-(1-(2-hydroxyacetyl)azetidin-3-yl)-4,7-dimethyl-3,4-dihydro-5H-pyrazolo[3,4-c]isoquinolin-5-one], the IC50 is under 1000 nM. For the compound `Cc1cc(C(C)Nc2ccc(Cl)nc2-c2ncn(C)n2)c2c(c1)c(=O)n(C)c1c2cnn1C1CN(C(=O)CN(C)C)C1` (centres unmarked) [Compound 104, 9-(1-((6-Chloro-2-(1-methyl-1H-1,2,4-triazol-3-yl)pyridin-3-yl)amino)ethyl)-3-(1-(dimethylglycyl)azetidin-3-yl)-4,7-dimethyl-3,4-dihydro-5H-pyrazolo[3,4-c]isoquinolin-5-one], the IC50 is under 1000 nM.

Turning to `[2H]C([2H])([2H])n1c(=O)c2cc(C)cc(C(C)Nc3ccc(Cl)nc3-c3ncn(C)n3)c2c2cnn([C@H]3CCN(C)C3)c21` (stereo partly drawn) [Compound 105, 9-(1-((6-Chloro-2-(1-methyl-1H-1,2,4-triazol-3-yl)pyridin-3-yl)amino)ethyl)-7-methyl-4-(methyl-d3)-3-((S)-1-methylpyrrolidin-3-yl)-3,4-dihydro-5H-pyrazolo[3,4-c]isoquinolin-5-one], the IC50 is under 1000 nM.

`Cc1cc(C(C)Nc2ccc(Cl)nc2-c2cnn(C)c2)c2c(c1)c(=O)n(C)c1c2cnn1CC1CCN(CC(F)F)CC1` (centres unmarked) [Compound 106, 9-(1-((6-Chloro-2-(1-methyl-1H-pyrazol-4-yl)pyridin-3-yl)amino)ethyl)-3-((1-(2,2-difluoroethyl)piperidin-4-yl)methyl)-4,7-dimethyl-3,4-dihydro-5H-pyrazolo[3,4-c]isoquinolin-5-one]: the IC50 is under 1000 nM.

Regarding `CC(=O)N1CCC(Cn2ncc3c4c(C(C)Nc5ccc(Cl)nc5-c5cnn(C)c5)cc(C)cc4c(=O)n(C)c32)CC1` (centres unmarked) [Compound 107, 3-((1-acetylpiperidin-4-yl)methyl)-9-(1-((6-chloro-2-(1-methyl-1H-pyrazol-4-yl)pyridin-3-yl)amino)ethyl)-4,7-dimethyl-3,4-dihydro-5H-pyrazolo[3,4-c]isoquinolin-5-one], the IC50 is under 1000 nM. With `Cc1cc(C(C)Nc2ccc(Cl)nc2-c2cnn(C)c2)c2c(c1)c(=O)n(C)c1c2cnn1CC1CCN(C(=O)N(C)C)CC1` (centres unmarked) [Compound 108, 4-((9-(1-((6-chloro-2-(1-methyl-1H-pyrazol-4-yl)pyridin-3-yl)amino)ethyl)-4,7-dimethyl-5-oxo-4,5-dihydro-3H-pyrazolo[3,4-c]isoquinolin-3-yl)methyl)-N,N-dimethylpiperidine-1-carboxamide] the figure was under 1000 nM; with `CCNC(=O)N1CCC(Cn2ncc3c4c(C(C)Nc5ccc(Cl)nc5-c5ccncc5F)cc(C)cc4c(=O)n(C)c32)CC1` (centres unmarked) [Compound 109, 4-((9-(1-((6-Chloro-3′-fluoro-[2,4′-bipyridin]-3-yl)amino)ethyl)-4,7-dimethyl-5-oxo-4,5-dihydro-3H-pyrazolo[3,4-c]isoquinolin-3-yl)methyl)-N-ethylpiperidine-1-carboxamide], under 1000 nM.
